In patent US20230398130A1, “METHODS AND COMPOSITIONS FOR DIFFERENTIATING STEM CELLS” (Massachusetts Institute of Technology, priority 2020, published 2023):

Legend:
ISC-enriched organoids [1] = experiment: Primary screen, 384-well 2.5-D organoid differentiation (ENR+CD, 6 days, Target Selective Inhibitor Library, vs whole-plate median): ATP (CellTiter-Glo 3D, CTG); conditions: for Dose.FC.CTG (log 2 fold change, ATP): vs plate median; for Dose.FC.CTG: FC vs plate median; for Z.CTG: standard z score of FC
ISC-enriched organoids [2] = experiment: Primary screen, 384-well 2.5-D organoid differentiation (ENR+CD, 6 days): carbachol-induced lysozyme secretion (LYZ.S); type: cell-based, murine; conditions: for Dose.FC.LYZ.S (log 2 fold change, carbachol-induced lysozyme secretion): vs plate median; for Dose.FC.LYZ.S: primary screen, FC vs plate median
Source text: (§1) High-throughput screening.

ISC-enriched organoids [3] = experiment: Primary screen, 384-well 2.5-D organoid differentiation (ENR+CD, 6 days): basal lysozyme secretion (LYZ.NS); type: cell-based, murine; conditions: for Dose.FC.LYZ.NS (log 2 fold change, basal lysozyme secretion): vs plate median; for Dose.FC.LYZ.NS: FC vs plate median; for Z.LYZ.NS: standard z score of FC
Source text: as §1

[4] = primary screen, dose 0.08 uM, ENR+CD 6 days
[5] = primary screen, dose 0.40 uM, ENR+CD 6 days
[6] = primary screen, dose 2.00 uM, ENR+CD 6 days
[7] = primary screen, dose 10.00 uM, ENR+CD 6 days

| Structure (SMILES) | Dose.FC.CTG (ISC-enriched organoids [1]; Dose 0.08 uM, primary screen) [log 2 fold change] | Z.CTG (ISC-enriched organoids [1]; Dose 0.08 uM) | Dose.FC.CTG (ISC-enriched organoids [1]; Dose 0.40 uM, primary screen) [log 2 fold change] | Z.CTG (ISC-enriched organoids [1]; Dose 0.40 uM) | Dose.FC.CTG (ISC-enriched organoids [1]; Dose 2.00 uM, primary screen) [log 2 fold change] | Z.CTG (ISC-enriched organoids [1]; Dose 2.00 uM) | Dose.FC.CTG (ISC-enriched organoids [1]; Dose 10.00 uM, primary screen) [log 2 fold change] | Z.CTG (ISC-enriched organoids [1]; Dose 10.00 uM) | Dose.FC.LYZ.S (ISC-enriched organoids [2]; Dose 0.08 uM) [log 2 fold change] | Dose.FC.LYZ.S (ISC-enriched organoids [2]; Dose 0.40 uM) [log 2 fold change] | Dose.FC.LYZ.S (ISC-enriched organoids [2]; Dose 2.00 uM) [log 2 fold change] | Dose.FC.LYZ.S (ISC-enriched organoids [2]; Dose 10.00 uM) [log 2 fold change] | Dose.FC.LYZ.NS (ISC-enriched organoids [3]; Dose 0.08 uM, primary screen) [log 2 fold change] | Z.LYZ.NS (ISC-enriched organoids [3]; Dose 0.08 uM) | Dose.FC.LYZ.NS (ISC-enriched organoids [3]; Dose 0.40 uM, primary screen) [log 2 fold change] | Z.LYZ.NS (ISC-enriched organoids [3]; Dose 0.40 uM) | Dose.FC.LYZ.NS (ISC-enriched organoids [3]; Dose 2.00 uM, primary screen) [log 2 fold change] | Z.LYZ.NS (ISC-enriched organoids [3]; Dose 2.00 uM) | Dose.FC.LYZ.NS (ISC-enriched organoids [3]; Dose 10.00 uM, primary screen) [log 2 fold change] | Z.LYZ.NS (ISC-enriched organoids [3]; Dose 10.00 uM) | also measured |
| --- | --- | --- | --- | --- | --- | --- | --- | --- | --- | --- | --- | --- | --- | --- | --- | --- | --- | --- | --- | --- | --- |
| COCC[n+]1c2c(n(Cc3cnccn3)c1C)C(=O)c1ccccc1C2=O.[Br-] [YM155 (Sepantronium Bromide)] | – | – | – | – | – | – | – | – | – | – | – | – | – | – | – | – | – | – | – | – | Z.CTG (standard z score) (ISC-enriched organoids [1]; dose 0.08 uM): 0.531; Dose.FC.CTG (log 2 fold change, ATP) (ISC-enriched organoids [1]; dose 0.08 uM): 0.222; Z.CTG (standard z score) (ISC-enriched organoids [1]; dose 0.40 uM): −0.198; Dose.FC.CTG (log 2 fold change, ATP) (ISC-enriched organoids [1]; dose 0.40 uM): −0.083; Z.CTG (standard z score) (ISC-enriched organoids [1]; dose 2.00 uM): −1.100; Dose.FC.CTG (log 2 fold change, ATP) (ISC-enriched organoids [1]; dose 2.00 uM): −0.460; Z.CTG (standard z score) (ISC-enriched organoids [1]; dose 10.00 uM): −2.316; Dose.FC.CTG (log 2 fold change, ATP) (ISC-enriched organoids [1]; dose 10.00 uM): −0.970; Dose.FC.LYZ.S (log 2 fold change, carbachol-induced lysozyme secretion) (ISC-enriched organoids [2]; dose 0.08 uM): 0.172; Dose.FC.LYZ.S (log 2 fold change, carbachol-induced lysozyme secretion) (ISC-enriched organoids [2]; dose 0.40 uM): −0.039; Dose.FC.LYZ.S (log 2 fold change, carbachol-induced lysozyme secretion) (ISC-enriched organoids [2]; dose 2.00 uM): −0.137; Dose.FC.LYZ.S (log 2 fold change, carbachol-induced lysozyme secretion) (ISC-enriched organoids [2]; dose 10.00 uM): −0.210; Z.LYZ.NS (standard z score) (ISC-enriched organoids [3]; dose 0.08 uM): 0.995; Dose.FC.LYZ.NS (log 2 fold change, basal lysozyme secretion) (ISC-enriched organoids [3]; dose 0.08 uM): 0.114; Z.LYZ.NS (standard z score) (ISC-enriched organoids [3]; dose 0.40 uM): −0.266; Dose.FC.LYZ.NS (log 2 fold change, basal lysozyme secretion) (ISC-enriched organoids [3]; dose 0.40 uM): −0.031; Z.LYZ.NS (standard z score) (ISC-enriched organoids [3]; dose 2.00 uM): −0.714; Dose.FC.LYZ.NS (log 2 fold change, basal lysozyme secretion) (ISC-enriched organoids [3]; dose 2.00 uM): −0.082; Z.LYZ.NS (standard z score) (ISC-enriched organoids [3]; dose 10.00 uM): −0.839; Dose.FC.LYZ.NS (log 2 fold change, basal lysozyme secretion) (ISC-enriched organoids [3]; dose 10.00 uM): −0.096 |
| CC(C)CCN1c2nc(Nc3cc(F)c(O)c(F)c3)ncc2N(C)C(=O)C1C (centres unmarked) [BI-D1870] | – | – | – | – | – | – | – | – | – | – | – | – | – | – | – | – | – | – | – | – | Dose.FC.CTG (ISC-enriched organoids [1]; [4]): 0.186 log 2 fold change; Z.CTG (ISC-enriched organoids [1]; primary screen, dose 0.08 uM): 0.444; Dose.FC.CTG (ISC-enriched organoids [1]; [5]): 0.029 log 2 fold change; Z.CTG (ISC-enriched organoids [1]; primary screen, dose 0.40 uM): 0.069; Dose.FC.CTG (ISC-enriched organoids [1]; [6]): −0.012 log 2 fold change; Z.CTG (ISC-enriched organoids [1]; primary screen, dose 2.00 uM): −0.028; Dose.FC.CTG (ISC-enriched organoids [1]; [7]): −0.700 log 2 fold change; Z.CTG (ISC-enriched organoids [1]; primary screen, dose 10.00 uM): −1.673; Dose.FC.LYZ.S (ISC-enriched organoids [2]; dose 0.08 uM, ENR+CD 6 days): 0.162 log 2 fold change; Dose.FC.LYZ.S (ISC-enriched organoids [2]; dose 0.40 uM, ENR+CD 6 days): 0.158 log 2 fold change; Dose.FC.LYZ.S (ISC-enriched organoids [2]; dose 2.00 uM, ENR+CD 6 days): 0.008 log 2 fold change; Dose.FC.LYZ.S (ISC-enriched organoids [2]; dose 10.00 uM, ENR+CD 6 days): −0.378 log 2 fold change; Dose.FC.LYZ.NS (ISC-enriched organoids [3]; [4]): 0.141 log 2 fold change; Z.LYZ.NS (ISC-enriched organoids [3]; primary screen, dose 0.08 uM): 1.225; Dose.FC.LYZ.NS (ISC-enriched organoids [3]; [5]): 0.126 log 2 fold change; Z.LYZ.NS (ISC-enriched organoids [3]; primary screen, dose 0.40 uM): 1.099; Dose.FC.LYZ.NS (ISC-enriched organoids [3]; [6]): −0.066 log 2 fold change; Z.LYZ.NS (ISC-enriched organoids [3]; primary screen, dose 2.00 uM): −0.574; Dose.FC.LYZ.NS (ISC-enriched organoids [3]; [7]): −0.285 log 2 fold change; Z.LYZ.NS (ISC-enriched organoids [3]; primary screen, dose 10.00 uM): −2.483 |
| O=C(NOCC1CC1)c1ccc(F)c(F)c1Nc1ccc(I)cc1Cl [PD184352 (CI-1040)] | 0.366 | 0.874 | 0.261 | 0.624 | −0.212 | −0.506 | −0.796 | −1.901 | −0.019 | −0.047 | −0.178 | −0.239 | −0.019 | −0.162 | −0.053 | −0.458 | −0.135 | −1.176 | −0.116 | −1.011 | – |
| O=c1cc(N2CCOCC2)oc2c1ccc1ccccc12 [NU7026] | 0.096 | 0.230 | 0.104 | 0.248 | 0.107 | 0.255 | −0.119 | −0.284 | 0.021 | 0.034 | −0.056 | −0.198 | 0.023 | 0.198 | 0.023 | 0.198 | −0.058 | −0.507 | −0.158 | −1.380 | – |
